GI50 and TGI data for four compounds are collected here from PubChem BioAssay (NCI).

Molecules are shown by their SMILES.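 In this assay, cells in 96-well plates receive the compound at five concentrations for 48 hours. Endpoints are linearly interpolated between the surrounding concentrations. GI50 marks 50% less growth. TGI marks complete inhibition of growth.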

Common to all, as to assay: growth of human tumour cells (NCI), 48 h
Test [1] concerns NCI-H460 lung.
In test [2] the test system is SK-OV-3 ovarian.
Test [3] has as its system MALME-3M melanoma.
For test [4], the system named is OVCAR-3 ovarian.
The subject of test [5] is MCF7 breast.
Test [6] concerns 786-0 renal.
Test [7] relates to ACHN renal.
The subject of test [8] is OVCAR-5 ovarian.
Test [9] has as its system OVCAR-8 ovarian.
Test [10] relates to A498 renal.

In the case of `C#Cc1c(I)n(C2OC(CO[Si](C)(C)C(C)(C)C)C3OC(C)(C)OC32)c(=O)[nH]c1=O` (stereo not given), the GI50 in test [1] was 20 µM; in test [2] it was 33.2 µM; in [3], 2.41 µM; in test [4], 1.65 µM; in [5], 16.6 µM; in [6], 14.7 µM. In addition, the GI50 in test [7] is 17.8 µM; in [8] it was 20.4 µM; in test [9] it was 12.1 µM; in [10], 17.1 µM. In addition, the TGI was 40.4 µM in [1]; over 100 µM in test [2]; 6.59 µM in test [3]; 3.56 µM in test [4]; 50 µM in test [5]; 29.4 µM in test [6]. For the same compound, the TGI is 39.7 µM in [7], 37 µM in [8], 27.8 µM in [9] and 35.7 µM in test [10].

Regarding `CCCCON(OC(=O)c1ccc2ccc3cccc4ccc1c2c34)C(C)=O`, the GI50 in test [1] is 32.1 µM; in test [2] it was 40.1 µM; in test [3], 18.3 µM; in [4], 31.8 µM; in test [5], 26.3 µM; in test [6] it was 19.6 µM. Besides, the GI50 was 21.7 µM in test [7], 23.2 µM in [8], 28.9 µM in test [9] and 27.7 µM in test [10]. In addition, the TGI in test [1] was over 100 µM; in [2], over 100 µM; in test [3], 37.5 µM; in test [4], 82.7 µM; in test [5] it was 68.9 µM; in test [6], 38.2 µM. In addition, the TGI in [7] is 51.6 µM; in test [8], 92 µM; in [9], over 100 µM; in test [10], 85.8 µM.

Turning to `COc1ccc(CC2NCCc3cc(OC)c(OC)cc32)cc1Br` (stereo not given), the TGI in test [1] was over 71.4 µM; in test [2], over 100 µM; in test [3], 34.3 µM; in test [4] it was over 100 µM; in test [5], over 100 µM; in [6] it was over 100 µM. In addition, the TGI is over 100 µM in [7], over 77.7 µM in [8], over 100 µM in test [9] and over 79.1 µM in test [10].

`ClCc1cccc(Cn2cnc3nc(Cl)nc(Cl)c32)c1`: the GI50 is 1.72 µM in test [1]; 8.41 µM in test [2]; 6.15 µM in test [3]; 1.53 µM in test [4]; 0.505 µM in test [5]; 0.697 µM in test [6]. Further, the GI50 in test [7] is 0.396 µM; in test [8], 1.63 µM; in test [9], 9.24 µM; in test [10] it was 1.52 µM. For the same compound, the TGI in test [1] was found to be 3.09 µM; in test [2], 22 µM; in test [3], 13 µM; in test [4] it was 2.86 µM; in test [5] it was 1.38 µM; in test [6], 1.76 µM. The TGI in test [7] turned out to be 0.837 µM; in test [8], 3.31 µM; in [9] it was 21.2 µM; in test [10], 2.9 µM.
